# Measured values taken from patent US20140113306A1, “DIAGNOSTIC AND SCREENING METHODS FOR INFLAMMATION” (Rutgers, The State University of New Jersey, priority 2012, published 2014).
# Tests used:
# TLR4 = test: Endotoxin/TLR4 signaling block in non-diabetic donor blood challenged with endotoxin in vitro; assay type: cell-based, human; details: 1 hour pretreatment, polymyxin 50 μg/ml or CLI-095; endotoxin 10 ng/ml 2 hours
# Protocol: (§1) (A) Blood samples from a non-diabetic (N) and a type 2 diabetic patient were separated into plasma and cellular fractions (cellular F.) and mutually exchanged. Thus, plasma derived from the non-diabetic donor was added to the diabetic patient cellular fraction, and vice versa. Leukocytes were isolated at indicated time post-exchange, lysed and analyzed by immunoblotting. (B) Blood samples from a non-diabetic donor were treated with insulin (0.1 unit/ml) for the indicated time (lanes 1-7) or with endotoxin for 2 hours (lane 8) (C) Blood samples from a non-diabetic donor were untreated (UN) or treated for 1 hour with polymyxin (50 μg/ml) or CL-095 (30 μM). Endotoxin (Endo; 10 ng/ml) was next added to specified samples (lanes 2-4). Leukocytes were isolated 2 hours tater. (D and E) Blood samples obtained from a non-diabetic donor and two type 2 diabetic patients (identified as diabetic 1 and diabetic 2) were all separated into plasma and cellular fraction. The cellular fractions were either untreated (lane 4) or treated with polymyxin (lanes 5 and 8) or CLI-095 (lanes 6 and 9) for 1 hour. The samples shown in lanes 1-3 were not subjected to plasma exchange. (D) Plasma derived from diabetic 1 (lanes 4-6) or diabetic 2 (lanes 7-9) was added to the non-diabetic donor cellular fractions and (E) vice versa. The leukocytes were isolated at 4 hours post-exchange. Samples were analyzed as in (A).
# (§2) Endotoxin (lipopolysaccharide from Escherichia coli 0111B4, Sigma, 10 ng/ml). Insulin (Humalog Mix 50/50; Lilly) was used at the indicated concentrations (0.05-1 unit/ml), Polymyxin (Invivogen, 50 μg/ml), CLI-095 (Invivogen; 3 μM), LY294002 (Cayman Chemical; 10 μM), Rapamycin (Tocris Bioscience; 100 nM), YC-1 (Sigma; 30 μM), Acriflavine (ACF; Sigma; 5 μM)
# (§3) Human Subjects were enrolled in the study following the Institutional Review Board of Rutgers Robert Wood Johnson Medical School approval. Written informed consent was obtained from all participates prior to inclusion in the study. Blood was drawn into EDTA-containing tubes. To isolate leukocytes, lysis buffer (bicarbonate-buffered ammonium chloride solution, 0.826% NH4Cl, 0.1% KHCO3, 0.0037% Na4EDTA in H2O) was added at a ratio of 20:1 (lysis buffer/blood). Once the erythrocytes lysed, the samples were centrifuged for […] at 400×g. The leukocyte pellet was washed once with phosphate-buffered saline. The pellet was suspended in RIPA buffer (1% Triton X-100, 1% deoxycholic acid, 10 mM Tris-HCl, pH 7.2, 158 mM NaCl, 0.1% SDS, and 1 mM PMSF and complete protease inhibitor mixture (Roche Applied Science)). Lysates containing equal protein amounts were analyzed by immunoblotting. Where indicated, endotoxin, insulin, and/or inhibitors were added to the whole blood samples prior to leukocyte isolation.
# To determine whether endotoxin is the component in diabetic patient plasma that regulates leukocyte activation, endotoxin/TLR4 signaling was blocked using two pharmacologic inhibitors, polymyxin and. CLI-095. Polymyxin is a natural polypeptide antibiotic that binds the lipid A moiety of endotoxin, and consequently interferes with endotoxin binding to TLR4. CLI-095, also known as TAK-242, is a specific TLR4 signaling inhibitor. As leukocytes express multiple Toll-like receptors (TLR) including TLR4, which binds endotoxin, TLR4 functions in the regulation of Akt/S6K1/mTOR axis is of interest.
# [1] = system: non-diabetic donor leukocytes; test: Plasma exchange: diabetic patient plasma added to non-diabetic donor cellular fraction; assay type: cell-based, human; details: cellular fraction treated 1 hour before exchange; leukocytes isolated 4 hours post-exchange
# Protocol: (A) Blood samples from a non-diabetic (N) and a type 2 diabetic patient were separated into plasma and cellular fractions (cellular F.) and mutually exchanged. Thus, plasma derived from the non-diabetic donor was added to the diabetic patient cellular fraction, and vice versa. Leukocytes were isolated at indicated time post-exchange, lysed and analyzed by immunoblotting. (B) Blood samples from a non-diabetic donor were treated with insulin (0.1 unit/ml) for the indicated time (lanes 1-7) or with endotoxin for 2 hours (lane 8) (C) Blood samples from a non-diabetic donor were untreated (UN) or treated for 1 hour with polymyxin (50 μg/ml) or CL-095 (30 μM). Endotoxin (Endo; 10 ng/ml) was next added to specified samples (lanes 2-4). Leukocytes were isolated 2 hours tater. […] Samples were analyzed as in (A).
# For the plasma mixing experiments, the blood samples were sedimented at unit gravity for 1.5 hours. […] The leukocytes were subsequently isolated, lysed, and analyzed by immunoblotting.
# Next, non-diabetic donor leukocytes and leukocytes from two type 2 diabetic patients were either untreated, or treated with either polymyxin or CLI-095 prior to the plasma/leukocytes exchange. As shown above, pS6K1, pIRS-1, and HIF-1α expression were all detected in non-diabetic donor leukocytes following exposure to diabetic patients plasma. […]
# liver = details: pretreatment, endotoxin challenge; cited from earlier work
# human leukocytes = test: Ex vivo whole blood pretreated with inhibitors, then endotoxin; leukocyte Western blotting and ATP analyses; assay type: cell-based; details: for endotoxin-induced AMPKα degradation (change in AMPKα expression) / endotoxin-induced HIF-1α expression / endotoxin-induced autophagy (LC3-I/LC3-II) / endotoxin-induced decline in ATP levels: whole blood treated 2 hours with inhibitor prior to endotoxin 10 ng/ml; for autophagy in endotoxin-treated leukocytes: FIG. 7B: LY 10 μM 30 min, RAPA 100 nM 2 hours, YC-1 30 μM 30 min, ACF 5 μM 2 hours, then endotoxin 10 ng/ml 2 hours
# Protocol: (A) Blood samples were treated with endotoxin (LPS; […]) for the indicated time. (B-D) Blood samples were untreated (control), treated for 2 hours with DMSO (vehicle), or the specified inhibitors prior to the addition of endotoxin (10 ng/ml). The inhibitors tested included: LY294002 (LY), Rapamycin (RAPA), YC-1, acriflavine (ACF), metformin (Met) and SRT1720 (SRT). Leukocytes were isolated at the indicated time post-endotoxin treatment and lysed. Lysates were subjected to Western blotting analyses, and where shown, ATP analyses. Details are provided in the supplement. (E) Proposed model for endotoxin-induced metabolic derangement in human leukocytes.
# (§4) FIG. 7. provides the Toll-like receptor 4 signaling pathway in human leukocytes and the antagonistic effect of insulin. (A) Blood samples were treated with endotoxin (10 ng/ml) for the indicated time. (B) Blood samples were untreated (UN), or treated with DMSO (vehicle; 0.05%; 2 hours), LY294002 (LY; 10 μM; 30 min), rapamycin (RAPA; 100 nM, 2 ‘hours), YC-1 (30 μM; 30 min), or acriflavine (ACF; 5 μM; 2 hours). The samples shown in lanes 3-8 were subsequently treated with endotoxin (10 ng/ml) for 2 hours. (C) Blood samples were untreated (UN; lane 1), treated with endotoxin (10 ng/ml; lane 2) for 2 hours, or with insulin (1 unit/ml) for 2 hours (lane 3) or 1 hour (lane 4). The samples shown in lanes 5-9 were treated with endotoxin (10 ng/ml) plus insulin at the indicated concentration (1-0.05 unit/ml) for 2 hours, (D) Blood samples were treated with insulin (0.1 unit/ml) plus endotoxin (10ng/ml) for the indicated time, or with endotoxin alone (Endo, 10 ng/ml) for 2 hours. Leukocytes were isolated, lysed, and analyzed as described in FIG. 5. (E) Model describing the pattern of signaling indicators detected in leukocytes treated with endotoxin as compared to insulin.
# To examine the signaling events linking endotoxin induced responses ex vivo with the altered metabolic/bioenergetic profile, the inventors examined the effect of pharmacological inhibitors implicated in the regulation of HIF-1α expression in other model systems. […] Furthermore, they indicate that distinct PI-3K effectors regulate HIF-1α stabilization and AMPKα degradation.
# To examine the effect of metformin on human leukocytes bioenergetics, whole blood samples were pretreated with metformin ex vivo prior to the addition of endotoxin.
# as §2, §3
# [2] = diabetics treated with metformin; cited from earlier work
# [3] = system: endotoxin-treated leukocytes; test: Insulin plus endotoxin in the in vitro whole blood system; leukocyte immunoblotting; assay type: cell-based, human
# Protocol: as §4, §2, §3
# Following food intake, especially if high in fat, human leukocytes might be exposed to increases in both insulin and endotoxin. Therefore, the combined effects of insulin and endotoxin on leukocytes were examined using the in vitro whole blood system. […] Insulin at a dose as low as 0.1 unit/ml also delayed onset of pAkt and pS6K1 in endotoxin-treated leukocytes (FIG. 7D).
# leukocytes = test: Insulin treatment of whole blood from non-diabetic individuals; leukocyte immunoblotting; assay type: cell-based, human; details: insulin alone 0.1 unit/ml
# Protocol: as §1, §2, §3
# To establish the nature of the circulating factor enriched, in plasma from diabetics, multiple candidates were considered. As leukocytes express insulin receptor and circulating insulin is high in many type 2 and treated type 1 diabetic patients, insulin was chosen as the primary candidate. However, the insulin-signaling pathway in leukocytes is poorly characterized.
# [4] = insulin 0.1 unit/ml plus endotoxin 10 ng/ml
# [5] = insulin higher than 0.1 unit/ml plus endotoxin 10 ng/ml, 2 hours
compound,measurement,setting,value
CCOC(=O)C1=CCCC[C@H]1S(=O)(=O)Nc1ccc(F)cc1Cl [CLI-095],HIF-1α expression upon challenge with endotoxin,TLR4,prevented
same,pIRS-1 upon challenge with endotoxin,TLR4,prevented
same,pS6K1 upon challenge with endotoxin,TLR4,prevented
same,"pS6K1, pIRS-1, and HIF-1α expression following exposure to diabetic patients plasma",[1],inhibited
"Oc1ccc(C=Cc2cc(O)cc(O)c2)cc1 [Resveratrol, resveratrol]",HIF-1α expression in the liver,liver,prevents
same,Sirt1 degradation in the liver,liver,prevents
same,autophagy in the liver,liver,prevents
O=C(Nc1ccccc1-c1cn2c(CN3CCNCC3)csc2n1)c1cnc2ccccc2n1 [SRT1720],endotoxin-induced AMPKα degradation (change in AMPKα expression),human leukocytes,did not
same,endotoxin-induced HIF-1α expression,human leukocytes,block
"OCc1ccc(-c2nn(Cc3ccccc3)c3ccccc23)o1 [YC-1, 3-(5′-hydroxymethyl-2′-furyl)-1-benzylindazole]",autophagy in endotoxin-treated leukocytes,human leukocytes,prevented
same,endotoxin-induced AMPKα degradation (change in AMPKα expression),human leukocytes,did not prevent
same,endotoxin-induced autophagy (LC3-I/LC3-II),human leukocytes,inhibited
same,endotoxin-induced decline in ATP levels,human leukocytes,inhibited
CN(C)C(=N)N=C(N)N [metformin],AMPKα phosphorylation,"human leukocytes; metformin alone, no endotoxin",induced
same,AMPKα phosphorylation (Thr 172),human leukocytes; metformin pretreatment combined with endotoxin,induced
same,endotoxin-induced AMPKα degradation (change in AMPKα expression),human leukocytes,prevents
same,endotoxin-induced HIF-1α expression,human leukocytes,prevents
same,endotoxin-induced AMPKα degradation (change in AMPKα expression),human leukocytes; listed as Metformin,inhibited
same,endotoxin-induced HIF-1α expression,human leukocytes; listed as Metformin,inhibited
same,less cancer than diabetics treated with insulin,[2],25-40%
acriflavine,autophagy in endotoxin-treated leukocytes,human leukocytes,prevented
same,endotoxin-induced AMPKα degradation (change in AMPKα expression),human leukocytes,did not prevent
same,endotoxin-induced autophagy (LC3-I/LC3-II),human leukocytes,inhibited
same,endotoxin-induced decline in ATP levels,human leukocytes,inhibited
insulin: Insulin (Humalog Mix 50/50; Lilly),signaling pattern of leukocytes,[3]; endotoxin plus insulin at <0.1 unit/ml,the pattern observed in leukocytes treated with endotoxin alone
same,onset of pAkt,[3]; [4],delayed onset
same,onset of pS6K1,[3]; [4],delayed onset
same,HIF-1α expression,[3]; [5],suppressed
same,TLR4 expression,[3]; [5],suppressed
same,autophagy,[3]; [5],suppressed
same,dephosphorylation of Raptor,[3]; [5],suppressed
same,pIRS-1,[3]; [5],suppressed
same,Raptor dephosphorylation,leukocytes,failed to induce
same,increase in HIF-1α expression,leukocytes,failed to induce
same,increase in autophagy,leukocytes,failed to induce
same,pAkt,leukocytes,triggered increases
same,pIRS-1,leukocytes,failed to induce
same,pS6K1,leukocytes,triggered increases
polymyxin,HIF-1α expression upon challenge with endotoxin,TLR4,prevented
same,pIRS-1 upon challenge with endotoxin,TLR4,prevented
same,pS6K1 upon challenge with endotoxin,TLR4,prevented
same,"pS6K1, pIRS-1, and HIF-1α expression following exposure to diabetic patients plasma",[1],inhibited
